One test addresses T1, mTOR kinase (Homo sapiens, UniProt P42345).
T1 construct: purchased Millipore, US
As to the kind of experiment: mTOR kinase TR-FRET assay. It is filed as biochemical. How it is done: Compound inhibition for mTOR kinase was determined by homogeneous TR-FRET assay using ULight-p70 S6K (Thr 389) peptide as substrate. mTOR enzyme (Millipore, US; […]) was used in the assay. The reaction buffer was HEPES (50 mM, pH 7.5), EGTA (1 mM), and MnCl2 (3 mM). Test compound was pre-incubated with mTOR for 30 min followed by 50 nM ULight-p70 S6K (Thr 389) peptide along with ATP (20 μM).
After incubating the reaction mixture for 30 min, Eu-labeled anti-phospho-substrate antibody (1 nM, Perkin Elmer, USA) was added. Fluorescence emission at […] was measured upon excitation at 340 nm. The compound dilution was carried out in 100% DMSO followed by a buffer dilution. The kinase reaction was incubated for 1 h at rt followed by the addition of substrate-ATP mix and incubated at rt for 1 h. The reaction was terminated by the addition of EDTA followed by the addition of detection mix. IC50 values were determined using a sigmoidal dose response curve fit, GraphPad Prism® v5 software.

The next test has as its system pERK in A375 cells. Briefly: In Cell Western (ICW) assay, pERK in A375 cells. It is filed as cell-based. Particulars: Homo sapiens, A-375, 3 h treatment. How it is done: Cell lines A375, A2058 and RKO obtained from the ATCC as provided above, were grown, and after attaining ˜80% confluency were trypsinized, centrifuged and resuspended in fresh media. The cells were seeded at the specified density (20,000 to 50,000) in a 96-well format black-well clear bottom plate (Corning) and incubated overnight at 37° C. in a 5% CO2 incubator. The next day, compound dilutions of test compounds were prepared in 100% DMSO followed by dilutions in respective media. Treatment of test compounds was performed for 3 h at 37° C. in 5% CO2 incubator. Following 3 h drug treatment, the conditional media was discarded and the cells were washed once with cPBS (PBS containing 0.1% magnesium chloride hexahydrate and 0.1% anhydrous calcium chloride) and fixed with 4% paraformaldehyde in cPBS for 1 h at rt. After fixing, the cells were given three washes using cPBST (cPBS containing 0.1% Triton™ X-100 reagent) and then blocked using blocking solution (5% skimmed milk powder or 5% BSA prepared in cPBST) for 2 h at rt with shaking at 300 rpm. The cells were again washed thrice with cPBST and incubated with primary antibody phospho-p44/42 MAPK(Erk1/2)(Thr202/204) antibody (Cell Signaling, Catalog # 9101L), phospho S6 ribosomal protein (Cell Signaling, Catalog #4858L), phospho AKT (Thr 308) (Cell Signaling, Catalog #9275) or phospho AKT (Ser 473) (Cell Signaling, Catalog #4060L) in specified dilutions (1:500-1:2500), prepared in respective blocking solutions, in a racker overnight at 4° C. The next day, the cells were washed with 1× Delfia® wash buffer (4×1 wash) and incubated with secondary antibody (Delfia®-Eu-N1 labeled anti-rabbit antibody; PerkinElmer, Catalog #AD0105; dilutions: 1:2000 to 1:6000 in Delfia® assay buffer (PerkinElmer, Catalog #1244-111)) for 2 h at rt in the dark at 300 rpm. The cells were then given four washes with 1× Delfia® wash buffer and incubated with Wallac Delfia® Enhancement solution (100 μL; PerkinElmer, Catalog #1244-105) for 20 min at rt in the dark at 300 rpm. The fluorescence emission was then read at 615 nm with an excitation wavelength of 340 nm using a Victor V5 Fluorometer (Perkin Elmer, US). The cells were then washed once with 1×cPBS and incubated with 100 μL of 0.5 mg/mL of Hoechst 33258 dye prepared in cPBS and read at 460 nm with 355 nm excitation, thereby evaluating the correction factor.
The % inhibition for the test compounds of formula (I) (new chemical entities (NCEs)) was calculated keeping DMSO control as 0% and the IC50 values were determined using sigmoidal dose response curve fit in GraphPad Prism® v5 software.

Another test has as its target T2, B-RAFV600E (Homo sapiens, UniProt P15056, V600E).
T2 construct: purchased Millipore, USA 14-557
As to the kind of experiment: B-RAFV600E radiometric assay. It is filed as biochemical. The conditions noted are these: read-out: Kinase assay B-Raf. How it is done:
Compound inhibition for B-RAFV600E was determined through radiometric assay using a BRAF enzyme (Catalog No. 14-557, Millipore, USA) and MEK-K97M protein as a substrate (Catalog No. 0785-0000-1, ProqQinase GmbH, Germany). The B-RAF kinase catalyzes the phosphorylation of MEK protein in the presence of gamma ATP (PLC-101, Jonaki, CCMB, Hyderabad), cold ATP and Mg^2+.
The phosphorylated protein product is detected by the scintillation counter Topcount® machine (Perkin Elmer). This assay has been adapted from the method previously reported by Yeh et al. (2007, Clinical Cancer Research; 13, 1576-1583). The assay measures the B-RAF mediated transfer of 32P from the gamma position of radiolabeled ATP onto MEK1-KD. The labeled phosphorylated protein was measured in MicroBeta® Trilux Counter (Perkin Elmer). The assay was validated with reference compounds RAF1 Kinase Inhibitor I and ZM 336372 inhibitor which are reported to be inhibitors of B-RAF enzyme (Lackey, 2000, Medicinal Chemistry Letters; 10(3):223-226; Kupcho, “Fluorescent High throughput kinase cascade assays for inhibitor characterization, RAF-MEK-ERK pathway, www.invitrogen.com, and Hall-Jackson, 1999, Chemical Biology; 6(8):559-568). B-RAF enzyme mixture (13 μL) was added to compound wells containing 2 μL of the NCE in 1% DMSO and incubated for 45 min at rt on a shaking incubator at 300 rpm. MEK-K97M (0.5 μg) and cold ATP to a final concentration of 5 μM, and hot ATP 0.1 μCi in a volume of 10 μL was added to each well and incubated for 2 h at rt on a shaking incubator at 300 rpm. The reaction was stopped by addition of […] (13 μL) containing ATP (1 mM: 495 μL 1N HCl and 5 μL 100 mM ATP). Aliquot (30 μL) was then transferred to the center of a 2 cm×2 cm P81 paper. P81 paper was washed 8×5 min each with ortho-phosphoric acid (0.5%). P81 papers are washed twice with acetone for […] Assay squares were allowed to dry for […] at 37° C. P81 paper are transferred to Optiplate™ (Perkin Elmer) and counted in a Topcount® counter (Perkin Elmer). Data was plotted against the compound concentration to generate dose-response curves and IC50 values were determined using a sigmoidal dose response curve fit GraphPad Prism® v5 software.

In the next test the test system is A375 cells. As to the kind of experiment: XTT assay for cell viability, A375 cells. Type of test: cell-based. The conditions noted are these: Homo sapiens, A-375, 72 h. How it is done:
Cell lines (A375 ATCC No. CRL-1619, A2058 ATCC No. CRL-11147 and RKO ATCC No. CRL-2577, American Type Culture Collection (ATCC), Manassas Va.) once attaining ˜80% confluency were trypsinized, centrifuged and resuspended in fresh media. Cells (1000-2000/per well) were seeded in 96-well plate and incubated over-night at 37° C. in a 5% CO2 incubator. Compound dilutions were prepared in 100% DMSO followed by dilutions in the respective media. The cells were treated with NCEs for 72 h at 37° C. in 5% CO2 incubator. After 72 h, freshly prepared XTT (1 mg/ml)/PMS (25 μM) solution was added, incubated for 2 to 3 h at 37° C. and the absorbance was measured at 450 nm using an ELISA plate reader. Keeping DMSO control as 100%, the effect of the compound to inhibit the cell proliferation was calculated and the GI50 values were determined using sigmoidal dose response curve fit in GraphPad Prism® v5 software.
Background: Tetrazolium dyes change colour on reduction, which living cells bring about.

T1 sequence (P42345 1362-2549 limits assumed): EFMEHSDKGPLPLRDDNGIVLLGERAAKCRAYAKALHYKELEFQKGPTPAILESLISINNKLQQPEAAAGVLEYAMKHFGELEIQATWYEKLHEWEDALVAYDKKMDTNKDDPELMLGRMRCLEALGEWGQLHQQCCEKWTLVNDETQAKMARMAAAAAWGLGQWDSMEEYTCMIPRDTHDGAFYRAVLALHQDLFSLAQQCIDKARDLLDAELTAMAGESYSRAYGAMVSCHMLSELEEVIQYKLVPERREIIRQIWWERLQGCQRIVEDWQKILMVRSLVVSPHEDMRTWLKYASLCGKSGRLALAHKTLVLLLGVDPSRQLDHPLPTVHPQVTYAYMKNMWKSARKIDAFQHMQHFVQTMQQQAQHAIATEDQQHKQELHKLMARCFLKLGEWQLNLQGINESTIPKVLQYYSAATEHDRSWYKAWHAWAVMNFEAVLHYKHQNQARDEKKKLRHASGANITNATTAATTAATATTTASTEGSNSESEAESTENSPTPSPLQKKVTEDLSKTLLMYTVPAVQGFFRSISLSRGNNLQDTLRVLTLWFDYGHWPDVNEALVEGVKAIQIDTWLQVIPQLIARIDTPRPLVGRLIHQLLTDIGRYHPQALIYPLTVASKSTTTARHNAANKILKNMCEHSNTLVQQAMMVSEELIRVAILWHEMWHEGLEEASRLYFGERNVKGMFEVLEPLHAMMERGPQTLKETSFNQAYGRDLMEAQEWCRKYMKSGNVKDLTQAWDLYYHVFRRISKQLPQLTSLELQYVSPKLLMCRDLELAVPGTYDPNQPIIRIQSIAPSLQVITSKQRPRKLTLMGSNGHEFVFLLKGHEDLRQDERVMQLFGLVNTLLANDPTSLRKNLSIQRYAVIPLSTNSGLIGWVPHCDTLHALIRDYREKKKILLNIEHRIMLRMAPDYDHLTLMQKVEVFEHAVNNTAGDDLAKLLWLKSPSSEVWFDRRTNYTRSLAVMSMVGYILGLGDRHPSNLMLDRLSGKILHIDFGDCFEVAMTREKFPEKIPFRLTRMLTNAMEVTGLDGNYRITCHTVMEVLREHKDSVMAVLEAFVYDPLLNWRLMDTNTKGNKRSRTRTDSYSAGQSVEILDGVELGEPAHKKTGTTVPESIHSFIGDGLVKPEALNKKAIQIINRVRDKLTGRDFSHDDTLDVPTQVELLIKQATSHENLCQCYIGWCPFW
T2 sequence (P15056 416-766 V600E limits assumed): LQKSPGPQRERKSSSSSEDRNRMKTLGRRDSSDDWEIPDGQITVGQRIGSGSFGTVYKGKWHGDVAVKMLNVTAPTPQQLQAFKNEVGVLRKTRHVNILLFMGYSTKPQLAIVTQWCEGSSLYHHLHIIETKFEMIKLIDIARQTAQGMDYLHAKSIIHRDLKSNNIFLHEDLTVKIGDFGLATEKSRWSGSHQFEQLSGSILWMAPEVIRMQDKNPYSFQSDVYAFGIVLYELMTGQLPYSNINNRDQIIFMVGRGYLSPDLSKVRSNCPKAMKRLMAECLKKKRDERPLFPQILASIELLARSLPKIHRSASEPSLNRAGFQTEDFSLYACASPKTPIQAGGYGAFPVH

For the compound `CCS(=O)(=O)Nc1cccc(-c2cc(OC)c3nc(-c4cnc(N)nc4)nc(N4CCOCC4)c3c2)c1F` [Example 21, N-(3-(2-(2-aminopyrimidin-5-yl)-8-methoxy-4-morpholinoquinazolin-6-yl)-2-fluorophenyl) \ethanesulfonamide], the IC50 fell in the range of 100 to 1000 nM at mTOR kinase, 100 to 1000 nM in the test with pERK in A375 cells, 100 to 1000 nM on B-RAFV600E and 1000 to 10000 nM with A375 cells.
As to `COc1cc(-c2cccc(NS(=O)(=O)C(C)C)c2F)cc2c(N3CCOCC3)nc(-c3ccc(N)nc3)nc12` [Example 33, N-(3-(2-(6-aminopyridin-3-yl)-8-methoxy-4-morpholinoquinazolin-6-yl)-2-fluorophenyl)propane-2-sulfonamide], the IC50 at mTOR kinase, in the test on pERK in A375 cells, at B-RAFV600E and in the test on A375 cells was 100 to 1000 nM each time.
For `COc1cc(-c2cccc(NS(=O)(=O)c3ccccc3F)c2F)cc2c(N3CCOCC3)nc(-c3ccc(N)nc3)nc12` [Example 29, N-(3-(2-(6-aminopyridin-3-yl)-8-methoxy-4-morpholinoquinazolin-6-yl)-2-fluorophenyl)-2-fluorobenzenesulfonamide], the IC50 lay in the range of 100 to 1000 nM against mTOR kinase, 1 to 100 nM in the test with pERK in A375 cells, 1 to 100 nM on B-RAFV600E and 100 to 1000 nM with A375 cells.
On to `COc1cc(-c2cccc(NS(=O)(=O)c3c(F)cccc3F)c2F)cc2c(N3CCOCC3)nc(-c3ccc(N)nc3)nc12` [Example 19, N-(3-(2-(6-aminopyridin-3-yl)-8-methoxy-4-morpholinoquinazoIin-6-yl)-2-fluorophenyl)-2,6-difluorobenzenesulfonamide], for which the IC50 is 100 to 1000 nM on mTOR kinase, 100 to 1000 nM in the test with pERK in A375 cells, 1 to 100 nM on B-RAFV600E and 100 to 1000 nM in the test on A375 cells.
Regarding `Nc1ncc(-c2nc(N3CCOCC3)c3cc(-c4cccc(NS(=O)(=O)CCCF)c4F)cc(N4CCCC4)c3n2)cn1` [Example 71, N-(3-(2-(2-aminopyrimidin-5-yl)-4-morphollno-8-(pyrrolidin-1-yl)quinazolin-6-yl)-2-fluorophenyl)-3-fluoropropane-1-sulfonamide], the IC50 lay in the range of 1 to 100 nM on mTOR kinase, 1 to 100 nM with pERK in A375 cells, 100 to 1000 nM on B-RAFV600E and 100 to 1000 nM with A375 cells.
As to `CCCS(=O)(=O)Nc1ccc(F)c(-c2cc(OC)c3nc(-c4ccc(N)nc4)nc(N4CCOCC4)c3c2)c1F` [Example 75, N-(3-(2-(6-aminopyridin-3-yl)-8-methoxy-4-morpholinoquinazolin-6-yl)-2,4-difluorophenyl)propane-1-sulfonamide], the IC50 against mTOR kinase is 1 to 100 nM; with pERK in A375 cells it was 1 to 100 nM; at B-RAFV600E, 1 to 100 nM; in the test on A375 cells, 100 to 1000 nM.
Take `CCCS(=O)(=O)Nc1cccc(-c2cc(OC)c3nc(-c4ccc(N)nc4F)nc(N4CCOCC4)c3c2)c1F` [Example 18, N-(3-(2-(6-amino-2-fluoropyridin-3-yl)-8-methoxy-4-morpholinoquinazolin-6-yl)-2-fluorophenyl)propane-1-sulfonamide]: the IC50 on mTOR kinase, in the test on pERK in A375 cells, at B-RAFV600E and with A375 cells was 100 to 1000 nM throughout.
Regarding `CCCS(=O)(=O)Nc1cccc(-c2cc(OC)c3nc(-c4cnc(N)nc4)nc(N4CCOCC4)c3c2)c1F` [Example 15, N-(3-(2-(2-aminopyrimidin-5-yl)-8-methoxy-4-morpholinoquinazolin-6-yl)-2-fluorophenyl)propane-1-sulfonamide], the IC50 on mTOR kinase, with pERK in A375 cells, at B-RAFV600E and in the test on A375 cells was 100 to 1000 nM throughout.
In the case of `COc1cc(-c2cccc(NS(=O)(=O)c3c(F)cccc3F)c2F)cc2c(N3CCOCC3)nc(-c3cnc(N)nc3)nc12` [Example 13, N-(3-(2-(2-aminopyrimidin-5-yl)-8-methoxy-4-morpholinoquinazolin-6-yl)-2-fluorophenyl)-2,6-difluorobenzenesulfonamide], the IC50 is 100 to 1000 nM at mTOR kinase, 100 to 1000 nM with pERK in A375 cells, 1 to 100 nM at B-RAFV600E and 100 to 1000 nM in the test on A375 cells.
`CCOc1cc(-c2cccc(NS(=O)(=O)CCCF)c2F)cc2c(N3CCOCC3)nc(-c3cnc(N)nc3)nc12` [Example 54, N-(3-(2-(2-aminopyrimidin-5-yl)-8-ethoxy-4-morpholinoquinazolin-6-yl)-2-fluorophenyl)-3-fluoropropane-1-sulfonamide]: the IC50 against mTOR kinase is 100 to 1000 nM; with pERK in A375 cells it was 1 to 100 nM; on B-RAFV600E, 1 to 100 nM; with A375 cells, 100 to 1000 nM.
Take `CCCS(=O)(=O)Nc1cccc(-c2cc(OC)c3nc(-c4ccc(N)nc4)nc(N4CCOCC4)c3c2)c1F` [Example 17, N-(3-(2-(6-aminopyridin-3-yl)-8-methoxy-4-morpholinoquinazolin-6-yl)-2-fluorophenyl)propane-1-sulfonamide]: the IC50 at mTOR kinase lay within 1 to 100 nM; with pERK in A375 cells, 100 to 1000 nM; on B-RAFV600E, 1 to 100 nM; in the test on A375 cells it was 100 to 1000 nM.

Source of the values: patent publication US9499495B2, “Quinazolines and azaquinazolines as dual inhibitors of RAS/RAF/MEK/ERK and PI3K/AKT/PTEN/mTOR pathways” (Asana Biosciences, LLC, priority 2013, dated 2016).
